Laboratory results as given in ChEMBL document CHEMBL3507680, “University of Dundee, Gates Library screen for HepG2 cell viability”.

Test: Human HepG2 cell viability assay in 384 well format
Type: toxicity, cell-based
Design: dose 125 nL, time 70.5 hour; concentration not given beside the values
Conditions: HepG2 cells, read-out: Inhibition

Row | Structure (SMILES) | cytotoxicity at 70.5 h [%]
1 | Cc1cccc2c1nc1n2[C@@H](CNC(=O)c2ccccn2)COC1 | -1.91
2 | CS(=O)(=O)c1ccc(O[C@H]2COCCN(Cc3ccncc3)C2)cc1 | -6.23
3 | COCC(=O)N[C@H](C)c1onc(-c2ccc(Cl)cc2)c1C(=O)O | -1.96
4 | COCC(=O)N[C@H](C)c1onc(-c2ccc(OC)cc2)c1C(=O)O | 10.8
5 | COc1ccc(-c2noc([C@@H](C)NC(=O)NC(C)(C)C)c2C(=O)O)cc1 | -10.4
6 | COCC(=O)N[C@H](C)c1c(-c2ccc(OC)cc2)noc1C(=O)O | -16.4
7 | CC(=O)N[C@H](C)c1c(-c2ccc(Cl)cc2)noc1C(=O)O | -6.07
8 | Cc1ccc2c(c1)nc1n2[C@@H](CNC(=O)c2cncnc2)COC1 | -2.41
9 | COc1ccc2c(c1)nc1n2[C@@H](CNC(=O)c2cccnc2)COC1 | 4.29
10 | c1cc(-c2noc([C@@H]3CCCN3CC3CC3)n2)cc(N2CCCC2)n1 | -11.8
11 | CC(C)CNC[C@H]1COCc2nc3cccnc3n21 | 10
12 | CS(=O)(=O)N1C[C@@H]2OCC(=O)N(CC3CCC3)[C@@H]2C1 | -6.88
13 | O=C(N1CCOCC1)N1CCOC[C@H](Oc2ccc(C(F)(F)F)cc2)C1 | -5.44
14 | Cc1cccc(CN2CCN3C(=O)NC[C@H]3C2)n1 | -2.26
15 | FC(F)(F)c1ccccc1CN1CCOC[C@H](Oc2cccnc2)C1 | 1.03
16 | CS(=O)(=O)NC[C@H]1Cn2c(-c3ccccc3)cnc2CO1 | -7.36
17 | O=C1COC[C@H]([C@H](O)c2ccc(NC(=O)c3ccco3)cc2)N1 | -0.619
18 | CC(C)(C)c1c[nH]c([C@@H]2COCCN2C2CCC2)n1 | -4.17
19 | COC(=O)[C@@H]1Cc2c[nH]c3cccc(c23)[C@H](CC(C)C)N1 | -2.26
20 | CC(C)NC(=O)N1C[C@@H](F)[C@@H](OCc2nc3ccccc3o2)C1 | -0.085
21 | Cc1ccc2nc3n(c2c1)[C@@H](CNCc1nccs1)COC3 | -5.06
22 | COc1ccc(CNC[C@H]2COCc3nc4cccnc4n32)cc1 | -4.57
23 | CCN(CC)C[C@H]1CN2CC[C@H]1C[C@@H]2CNC(=O)c1ccco1 | -3.47
24 | COCC(=O)NC[C@H]1C[C@@H]2CCN1C[C@@H]2CN1CCc2ccccc21 | -3.32
25 | O=C(N[C@@H]1CNCCC[C@H]1O)c1ccc(OCCN2CCOCC2)cc1 | 1.5
26 | O[C@@H]1C[C@@H](c2nc(-c3ccccc3)no2)N(Cc2cccnc2)C1 | -2.41

Row | Structure (SMILES) | cytotoxicity at 70.5 h [%]
27 | Cc1ccc(S(=O)(=O)Cc2noc([C@@H]3C[C@@H](O)CN3)n2)cc1 | -3.28
28 | COCCOc1ccc(-c2noc([C@@H]3CCCN3)n2)cn1 | -0.543
29 | Cc1ccccc1CN1CCC[C@H]1c1nc(-c2cncnc2N)no1 | -3.84
30 | CCN(CC)C1(Cc2cc(-c3ccccn3)on2)COC1 | -4.45
31 | CC(C)(C)CNC1(Cc2cc(C(C)(C)O)on2)COC1 | -7.44
32 | CC(=O)N1CCC(N2CCOC[C@H]2c2nc(-c3ccccc3)c[nH]2)CC1 | -2.43
33 | CS(=O)(=O)c1ccc(CNC[C@H]2COCc3nc4ccccc4n32)cc1 | 5.94
34 | CC(=O)N1CCC(N2C[C@@H](F)[C@@H](OCc3nc4ncccc4[nH]3)C2)CC1 | -2.27
35 | CC(=O)NC[C@H]1COCc2nc3cc(S(C)(=O)=O)ccc3n21 | -0.348
36 | CS(=O)(=O)c1ccc2c(c1)nc1n2[C@@H](CNCc2cccnc2)COC1 | -6.64
37 | COc1ccc(CN2C[C@H]3CN(C(=O)c4ccno4)CCN3C2=O)cc1 | -7.88
38 | CN1CCC(N[C@@H]2CO[C@H](CNC(=O)c3cccs3)[C@H]2O)CC1 | -6.9
39 | O=S(=O)(c1ccc(Cl)cc1)N1CCOC[C@H](Oc2cnccn2)C1 | 0.0647
40 | CO[C@H]1COCCN(C(=O)c2ccc(C(F)(F)F)cc2)C1 | -4.56
41 | O=C(NC1CCCC1)O[C@H]1COCCN(c2nc3ccccc3s2)C1 | 3.92
42 | CS(=O)(=O)c1ccc(O[C@H]2COCCN(C(=O)c3ccno3)C2)cc1 | -2.76
43 | O=C(c1ccno1)N1CCOC[C@H](Oc2ccc(C(F)(F)F)cc2)C1 | -0.658
44 | COc1ccc(CN2CCOC[C@H](Oc3cccnc3)C2)cc1 | 4.36
45 | O=C(NC[C@H]1OC[C@@H](NC2CCC2)[C@@H]1O)c1cccs1 | -5.08
46 | O=C(NC[C@H]1OC[C@@H](NC2CCCCC2)[C@@H]1O)c1cccs1 | -5.2
47 | O=C(NC[C@H]1OC[C@@H](NC2CCCC2)[C@@H]1O)C1CCCC1 | 10.4
48 | c1cc(-c2c[nH]c([C@@H]3COCCN3C3CCCCC3)n2)ccn1 | 0.143
49 | Cc1ccc(CN[C@@H]2CO[C@H](CNS(=O)(=O)c3ccccc3)[C@H]2O)cc1 | -0.953
50 | c1ccc(CN2CCOC[C@H]2c2nc(-c3ccncc3)c[nH]2)nc1 | 1.25
51 | CC(=O)N1CCC2(CC1)CN(C(=O)c1ccc3c(c1)OCCO3)C2 | 5.66
52 | CCN1CC2(CCCCN2C(=O)c2ccn(C)n2)CC1=O (centres undefined) | 0.273

Row | Structure (SMILES) | cytotoxicity at 70.5 h [%]
53 | O=C1CC2(CCCCN2C(=O)c2ccoc2)CN1Cc1ccccc1 (centres undefined) | 3.41
54 | CC(=O)N1CCC2(CCN(CC3CCCCC3)C2)CC1 | 3.48
55 | CC(C)C(=O)N1CCC2(CC1)NC(=O)[C@H]1CN(Cc3cccnc3)C[C@H]12 | 4.61
56 | NC(=O)N1C[C@@H]2CN(C(=O)c3ccco3)C[C@@H]2C1 | -7.36
57 | CC(C)NC(=O)N1CCOC2(CCNCC2)C1 | -2.57
58 | CC(C)C(=O)NC1COC2(CCN(C(=O)c3cccnc3)CC2)C1 (centres undefined) | -3.81
59 | O=C1CCC2(CCCN(C(=O)c3ccco3)CC2)N1 (centres undefined) | -3.81
60 | O=S(=O)(c1cccc(Cl)c1)N1C[C@@H]2CCN[C@@H]2C1 | -0.439
61 | O=C1CCCC2(CCN(C(=O)c3cnccn3)CC2)N1 | -4.91
62 | CN(C)C1COC2(CCN(C(=O)c3cccnc3)CC2)C1 (centres undefined) | -6.03
63 | CN1C(=O)CC[C@@H]2[C@H]1CCN2S(=O)(=O)c1cccs1 | -1.06
64 | CC(C)NC(=O)N1CCC2(CC1)NC(=O)[C@H]1CN(C(=O)N(C)C)C[C@H]12 | -3.94
65 | CCS(=O)(=O)N1CCC2(CC1)CN(C(=O)N(C)C)Cc1ccccc12 | -2.71
66 | C[C@H]1C[C@H]2CN(C(=O)C3=CCCCC3)CC[C@H]2O1 | -2.58
67 | O=C(C1CCCC1)N1C[C@@H]2CCNC[C@@H]21 | -9.43
68 | CCN1C(=O)C(c2ccccc2)CC12CCN(c1ncccn1)CC2 (centres undefined) | -18.6
69 | O=C(c1ccsc1)N1C[C@@H]2CCN(C(=O)c3cccc(F)c3)[C@@H]2C1 | -11.5
70 | O=C(NC1CCCC1)c1n[nH]c2c1CNCC2 | -12.1
71 | O=C(NC1CCC1)c1n[nH]c2c1CNCC2 | -8.89
72 | CC(C)CC(=O)N1CCC2(CC1)NC(=O)[C@H]1CN(C(=O)N(C)C)C[C@H]12 | -7.99
73 | CC(=O)N1CCc2[nH]nc(C(=O)N3CCOCC3)c2C1 | -4.57
74 | O=C(Nc1cccnc1)c1noc2c1CN(S(=O)(=O)C1CC1)CC2 | -12.1
75 | O=C(c1ccco1)N1C[C@H]2CCCN(C(=O)c3ccsc3)[C@H]2C1 | -16.2
76 | COCC(=O)N1CCC2(CC1)NC(=O)[C@H]1CN(C(=O)N(C)C)C[C@H]12 | -7.64
77 | Cc1ccc(CN2C[C@H]3CN(CC4CCN(C)CC4)C(=O)[C@H]3C2)s1 | -12.7
78 | C[C@@H](NCc1cccc(Cl)c1)c1onc(-c2ccc(F)cc2)c1C(=O)O | -2.58

Row | Structure (SMILES) | cytotoxicity at 70.5 h [%]
79 | CC(C)CC(=O)N[C@H](C)c1c(-c2ccc(Cl)cc2)noc1C(=O)O | -7.33
80 | CNC(=O)[C@@H](CC(C)C)N1CCC[C@H]1C(=O)N(C)Cc1ccccc1 | -7.93
81 | N#CC1(C(=O)NCC2CCC3(CCNCC3)O2)CC1 (centres undefined) | 20
82 | CNC(=O)[C@@H](C1CCCCC1)N1CCC[C@H]1C(=O)NCCN1CCCC1 | 3.4
83 | Cc1noc(C)c1CNC[C@@]1(COc2cccnc2)C[C@@H](O)[C@@H](O)C1 | -8.56
84 | COCc1nn(CC2CC2)c2c1CN(Cc1cccs1)CC2 | -8.23
85 | CS(=O)(=O)N1CCC2(CC1)CN(CC1CC1)CC21CCNC1=O (centres undefined) | -9.45
86 | CC(C)CN1CCC2(CC1)CN(C(=O)C(C)C)C2 | -9.29
87 | CCOCc1nn(CC2CC2)c2c1CN(Cc1ccco1)CC2 | -6.88
88 | O=C1CCC2(CCCN(C(=O)c3ccccn3)CC2)N1 (centres undefined) | -1.45
89 | CC(C)OCc1nn(CC2CC2)c2c1CN(Cc1ccco1)CC2 | -1.8
90 | Cc1ccc(CN2CCC3(CCCC(=O)N3)CC2)s1 | -3.64
91 | O=C1CCCC2(CCN(C(=O)c3ccccn3)CC2)N1 | -1.46
92 | CC(C)CN1C[C@@H]2C(=O)N(C)C3(CCN(C(=O)C(C)C)CC3)[C@@H]2C1 | -6.33
93 | CCN1CCN(C)C(=O)C12CCN(Cc1ccsc1)CC2 | -13
94 | COCc1nn(C)c2c1CN(Cc1cnn(C)c1)CC2 | -11.4
95 | O=S(=O)(c1cccs1)N1CC[C@H]2[C@H]1CCN2CC1CC1 | -9.72
96 | Cc1cccc(C(=O)N2C[C@@H]3[C@H](CC(=O)NC(C)C)[C@@H]3C2)n1 | -9.84
97 | Cc1ccccc1CN1CCC2(CC1)CN(S(=O)(=O)c1ccccc1)C2 | -6.98
98 | CNC(=O)CN1C(=O)CCC12CCCN(Cc1cccc(F)c1)C2 (centres undefined) | -6.75
99 | Cc1cc(CN2CC[C@H]3[C@H]2CCN3C)oc1C | -5.26
100 | CN1CCC2(CC1)CN(CC1CC1)CC21CCNC1=O (centres undefined) | -6.91
101 | Cc1cccc(C(=O)N2C[C@@H]3[C@H](CC(=O)Nc4cccnc4)[C@@H]3C2)n1 | -14.3
102 | Cn1cc(CN2CC[C@@H]3[C@@H]2CCN3Cc2ccc3c(c2)OCO3)cn1 | -3
103 | c1cnc(N2CC3(CCN(Cc4cccnc4)C3)C2)nc1 | 9.91
104 | c1cncc(CN2CC[C@@H]3[C@@H]2CCN3Cc2ccc3c(c2)OCO3)c1 | 0.903
